Legend:
Format in all cases: biochemical
Stk6 = target: T1, Stk6 (Homo sapiens, UniProt O14965); assay: Z'-Lyte FRET kinase assay (Invitrogen), Stk6; details: read-out: IC50, activity toward kinase Stk6
T1 construct: purchased Invitrogen (Carlsbad, Calif.), screening service
T1 sequence (O14965 1-403): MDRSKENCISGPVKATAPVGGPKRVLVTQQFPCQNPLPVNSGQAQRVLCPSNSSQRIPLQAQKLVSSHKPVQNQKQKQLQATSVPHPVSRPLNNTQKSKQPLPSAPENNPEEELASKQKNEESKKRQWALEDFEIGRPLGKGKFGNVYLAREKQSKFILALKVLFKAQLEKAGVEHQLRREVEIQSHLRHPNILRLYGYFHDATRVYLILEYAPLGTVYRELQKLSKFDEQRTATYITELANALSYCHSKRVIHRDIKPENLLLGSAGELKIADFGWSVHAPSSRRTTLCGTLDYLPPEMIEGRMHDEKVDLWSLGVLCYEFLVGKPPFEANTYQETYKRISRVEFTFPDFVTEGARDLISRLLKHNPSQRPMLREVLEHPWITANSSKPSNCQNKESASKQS

MAP2K1 = target: T2, MAP2K1 (Homo sapiens, UniProt Q02750); assay: Z'-Lyte FRET kinase assay (Invitrogen), MAP2K1; details: read-out: IC50, activity toward kinase MAP2K1
T2 construct: purchased Invitrogen (assay run by Invitrogen)

Kdr = target: T3, Kdr (Homo sapiens, UniProt P35968); assay: Z'-Lyte FRET kinase assay (Invitrogen), Kdr; details: read-out: IC50, activity toward kinase Kdr
T3 construct: purchased Invitrogen (assay run by Invitrogen)

Fms = target: T4, Fms (Homo sapiens, UniProt P07333); assay: AlphaScreen kinase assay, Fms; details: read-out: IC50, activity toward kinase Fms
T4 construct: purchased Upstate Biotechnology

Kit = target: T5, Kit (Homo sapiens, UniProt P10721); assay: AlphaScreen kinase assay, Kit; details: read-out: IC50, activity toward kinase Kit
T5 construct: P1332.N6 BI PTP KIT M552-K948-X COD; His6 (N); made in house; host or cells: E. coli (PTP1B co-expressed)

Ret = target: T6, Ret (Homo sapiens, UniProt P07949); assay: AlphaScreen kinase assay, Ret; details: read-out: IC50, activity toward kinase Ret
T6 construct: P1378.pET-SF BI-PTP RET H661-R1012 HIS; made in house
T6 sequence (P07949 with tags, fused parts or gaps): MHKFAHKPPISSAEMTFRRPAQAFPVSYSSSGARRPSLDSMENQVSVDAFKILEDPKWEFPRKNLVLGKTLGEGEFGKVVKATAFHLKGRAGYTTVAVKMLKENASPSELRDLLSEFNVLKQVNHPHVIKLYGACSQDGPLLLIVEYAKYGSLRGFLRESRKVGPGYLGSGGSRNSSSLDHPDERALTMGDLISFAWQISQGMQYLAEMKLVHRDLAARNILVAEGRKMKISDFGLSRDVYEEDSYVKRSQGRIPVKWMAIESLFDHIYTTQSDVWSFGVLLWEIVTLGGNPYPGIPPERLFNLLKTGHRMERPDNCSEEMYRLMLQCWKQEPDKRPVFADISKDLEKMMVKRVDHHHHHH

FGFR1 = target: T7, FGFR1 (Homo sapiens, UniProt P11362, C488A/C584S); assay: AlphaScreen kinase assay, FGFR1; details: read-out: IC50, activity toward kinase FGFR
T7 construct: P1351.pET N6 BI-PTP FGFR A458-E765-X C488A, C584S; made in house; host or cells: E. coli (PTP1B co-expressed)

Met = target: T8, Met (Homo sapiens, UniProt P08581); assay: AlphaScreen kinase assay, Met; details: read-out: IC50, activity toward kinase Met
T8 construct: P1818.pETN6 BI-PTP MET G1056-G1364-X WT; His6 (N); made in house; host or cells: E. coli (PTP1B co-expressed)
In short: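 Inhibition reads as diminished acceptor emission, since unphosphorylated peptide fails to bridge antibody acceptor beads and streptavidin donor beads. Titration: eight points, 1:3 steps, stocks at 20 mM in DMSO.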

Flt4 = target: T9, Flt4 (Homo sapiens, UniProt P35916); assay: AlphaScreen kinase assay, Flt4; details: read-out: IC50, activity toward kinase Flt4
T9 construct: purchased ProQinase GmbH (Freiburg, Germany)
From the text: AlphaScreen assay was used to screen additional kinases. The assay is similarly dependent on the phosphorylation of a peptide substrate. In this assay, an antibody that recognizes phosphorylated substrate is bound to an acceptor bead. The peptide substrate is attached to biotin, which binds to a donor head that contains streptavidin. Thus phosphorylated substrate is bound by antibody and streptavidin, bringing the donor and acceptor heads into close proximity when kinase is not inhibited. The donor produces singlet oxygen which results in emission from the acceptor when they are in close proximity. Conversely, when kinase is inhibited, the donor and acceptor beads are not associated and the emission from the acceptor is reduced.
AlphaScreen assays were done using compounds dissolved in DMSO to a concentration of 20 mM. The compounds were diluted accordingly to the desired final concentrations in each sample well, using 1:3 serial dilution for a total of 8 concentration points.

Flt1 = target: T10, Flt1 (Homo sapiens, UniProt P17948); assay: AlphaScreen kinase assay, Flt1; details: read-out: IC50, activity toward kinase Flt1
T10 construct: P1826.pETN6 BI-PTP FLT1 M799-D1165-X WT; His6 (N); made in house; host or cells: E. coli (PTP1B co-expressed)
T10 sequence (P17948 with tags, fused parts or gaps): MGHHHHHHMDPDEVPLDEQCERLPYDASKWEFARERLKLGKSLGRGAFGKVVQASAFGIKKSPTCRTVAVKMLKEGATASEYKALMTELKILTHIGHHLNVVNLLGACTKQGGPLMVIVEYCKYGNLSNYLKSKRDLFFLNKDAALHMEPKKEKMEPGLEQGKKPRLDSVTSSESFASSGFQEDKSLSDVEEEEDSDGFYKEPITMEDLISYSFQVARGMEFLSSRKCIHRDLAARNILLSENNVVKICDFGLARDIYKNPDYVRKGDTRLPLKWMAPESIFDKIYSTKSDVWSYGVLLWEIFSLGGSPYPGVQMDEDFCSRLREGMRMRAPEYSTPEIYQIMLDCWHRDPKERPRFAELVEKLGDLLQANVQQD

Btk = target: T11, Btk (Homo sapiens, UniProt Q06187); assay: Z'-Lyte FRET kinase assay (Invitrogen), Btk; details: read-out: IC50, activity toward kinase Btk
T11 construct: purchased Invitrogen (assay run by Invitrogen)

B-Raf V600E = target: T12, B-Raf V600E (Homo sapiens, UniProt P15056, V600E); assay: AlphaScreen kinase assay, B-Raf V600E; details: read-out: IC50, activity toward kinase B-Raf V600E
T12 construct: P4254. pFastBacBD-CDC37 BRAF D437-K722-X, V600E; His6 with pFastBac HT leader (TEV site) (N); made in house; host or cells: Sf9 (baculovirus; chaperone CDC37 co-expressed)

Jnk3 = target: T13, Jnk3 (Homo sapiens, UniProt P53779); assay: AlphaScreen kinase assay, Jnk3; details: read-out: IC50, activity toward kinase Jnk3
T13 construct: purchased Upstate Biotechnology

c-Raf-1 = target: T14, c-Raf-1 (Homo sapiens, UniProt P04049); assay: AlphaScreen kinase assay, c-Raf-1; details: read-out: IC50, activity toward kinase c-Raf-1
T14 construct: purchased Upstate Biotechnology

T3 sequence (P35968 20-1356): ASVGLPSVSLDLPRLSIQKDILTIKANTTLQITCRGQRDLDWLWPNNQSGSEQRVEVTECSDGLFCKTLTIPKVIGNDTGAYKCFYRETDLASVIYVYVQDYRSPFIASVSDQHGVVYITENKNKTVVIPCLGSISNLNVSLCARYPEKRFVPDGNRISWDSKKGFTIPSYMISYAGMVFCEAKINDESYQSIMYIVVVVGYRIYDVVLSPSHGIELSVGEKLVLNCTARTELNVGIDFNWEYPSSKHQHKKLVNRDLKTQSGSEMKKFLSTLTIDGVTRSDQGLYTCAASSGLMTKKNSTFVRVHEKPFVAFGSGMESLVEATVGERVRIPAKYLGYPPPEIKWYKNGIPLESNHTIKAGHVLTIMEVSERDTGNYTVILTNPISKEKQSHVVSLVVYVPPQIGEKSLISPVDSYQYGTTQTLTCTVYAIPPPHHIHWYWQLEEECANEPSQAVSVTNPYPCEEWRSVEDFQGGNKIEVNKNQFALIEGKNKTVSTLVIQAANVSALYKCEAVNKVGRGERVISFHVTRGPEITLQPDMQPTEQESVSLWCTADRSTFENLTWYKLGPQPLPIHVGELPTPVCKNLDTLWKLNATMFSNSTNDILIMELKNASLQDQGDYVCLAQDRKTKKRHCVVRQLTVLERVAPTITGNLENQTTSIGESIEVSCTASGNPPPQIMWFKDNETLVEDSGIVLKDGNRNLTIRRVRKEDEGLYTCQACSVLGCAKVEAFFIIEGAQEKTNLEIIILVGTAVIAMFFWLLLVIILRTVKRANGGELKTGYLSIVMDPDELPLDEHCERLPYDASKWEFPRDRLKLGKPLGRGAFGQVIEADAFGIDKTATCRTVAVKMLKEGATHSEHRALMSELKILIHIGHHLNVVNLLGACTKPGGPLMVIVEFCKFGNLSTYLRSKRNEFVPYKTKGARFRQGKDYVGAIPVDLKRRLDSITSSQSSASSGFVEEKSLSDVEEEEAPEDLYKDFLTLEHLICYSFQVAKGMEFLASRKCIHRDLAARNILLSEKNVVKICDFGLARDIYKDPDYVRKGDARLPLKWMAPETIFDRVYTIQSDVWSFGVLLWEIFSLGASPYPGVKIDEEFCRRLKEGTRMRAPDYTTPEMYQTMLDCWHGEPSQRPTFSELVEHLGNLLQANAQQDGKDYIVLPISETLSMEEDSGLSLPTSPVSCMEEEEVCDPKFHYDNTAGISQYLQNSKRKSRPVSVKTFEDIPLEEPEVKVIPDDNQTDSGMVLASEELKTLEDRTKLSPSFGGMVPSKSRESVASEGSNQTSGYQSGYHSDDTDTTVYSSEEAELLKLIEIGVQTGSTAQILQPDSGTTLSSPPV
T7 sequence (P11362 458-765 C488A/C584S): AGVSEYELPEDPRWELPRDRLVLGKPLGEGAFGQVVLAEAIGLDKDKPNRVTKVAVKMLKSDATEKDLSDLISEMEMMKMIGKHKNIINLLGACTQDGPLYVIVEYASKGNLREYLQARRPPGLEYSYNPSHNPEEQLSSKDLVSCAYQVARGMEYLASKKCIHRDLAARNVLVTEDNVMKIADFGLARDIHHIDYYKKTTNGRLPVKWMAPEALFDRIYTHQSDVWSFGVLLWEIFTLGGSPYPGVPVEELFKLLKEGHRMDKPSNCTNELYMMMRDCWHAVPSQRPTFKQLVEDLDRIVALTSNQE
T2 sequence (Q02750 whole entry): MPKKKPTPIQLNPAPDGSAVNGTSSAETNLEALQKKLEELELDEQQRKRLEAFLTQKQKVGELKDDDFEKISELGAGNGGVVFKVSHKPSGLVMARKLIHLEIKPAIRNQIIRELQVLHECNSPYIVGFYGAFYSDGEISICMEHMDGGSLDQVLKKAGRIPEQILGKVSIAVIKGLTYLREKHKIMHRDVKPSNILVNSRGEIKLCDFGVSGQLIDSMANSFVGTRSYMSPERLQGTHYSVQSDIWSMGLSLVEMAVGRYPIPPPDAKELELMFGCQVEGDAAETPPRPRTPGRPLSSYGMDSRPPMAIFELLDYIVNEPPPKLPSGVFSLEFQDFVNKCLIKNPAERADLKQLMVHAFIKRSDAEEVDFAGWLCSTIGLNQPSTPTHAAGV
T8 sequence (P08581 with tags, fused parts or gaps): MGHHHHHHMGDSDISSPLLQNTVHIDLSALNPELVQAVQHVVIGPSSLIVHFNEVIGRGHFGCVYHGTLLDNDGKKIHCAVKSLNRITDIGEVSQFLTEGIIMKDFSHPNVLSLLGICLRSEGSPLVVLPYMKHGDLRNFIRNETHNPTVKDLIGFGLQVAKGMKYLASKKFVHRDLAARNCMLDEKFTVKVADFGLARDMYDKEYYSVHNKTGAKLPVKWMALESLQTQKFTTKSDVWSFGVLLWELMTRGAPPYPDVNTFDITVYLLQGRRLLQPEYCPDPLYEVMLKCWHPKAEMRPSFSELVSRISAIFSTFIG
T5 sequence (P10721 with tags, fused parts or gaps): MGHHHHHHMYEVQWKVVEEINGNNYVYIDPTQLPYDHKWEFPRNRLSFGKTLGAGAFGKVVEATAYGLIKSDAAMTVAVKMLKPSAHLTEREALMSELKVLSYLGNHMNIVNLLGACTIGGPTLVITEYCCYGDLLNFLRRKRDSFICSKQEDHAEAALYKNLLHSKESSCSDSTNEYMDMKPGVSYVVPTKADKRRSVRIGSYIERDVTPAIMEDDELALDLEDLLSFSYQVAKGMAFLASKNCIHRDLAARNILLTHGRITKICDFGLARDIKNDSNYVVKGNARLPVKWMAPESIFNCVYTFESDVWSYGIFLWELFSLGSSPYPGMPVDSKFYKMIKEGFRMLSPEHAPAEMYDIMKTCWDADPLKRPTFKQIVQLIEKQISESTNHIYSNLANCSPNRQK
T12 sequence (P15056 with tags, fused parts or gaps V600E): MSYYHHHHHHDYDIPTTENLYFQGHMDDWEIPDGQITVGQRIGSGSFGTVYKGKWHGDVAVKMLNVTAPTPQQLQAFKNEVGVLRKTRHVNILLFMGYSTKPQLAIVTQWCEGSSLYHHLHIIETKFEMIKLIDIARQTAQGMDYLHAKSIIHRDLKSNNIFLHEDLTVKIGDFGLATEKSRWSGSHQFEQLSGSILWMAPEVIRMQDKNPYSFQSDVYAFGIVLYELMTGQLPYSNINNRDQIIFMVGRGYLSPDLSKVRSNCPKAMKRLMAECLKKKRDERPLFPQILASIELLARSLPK
T9 sequence (P35916 25-1363): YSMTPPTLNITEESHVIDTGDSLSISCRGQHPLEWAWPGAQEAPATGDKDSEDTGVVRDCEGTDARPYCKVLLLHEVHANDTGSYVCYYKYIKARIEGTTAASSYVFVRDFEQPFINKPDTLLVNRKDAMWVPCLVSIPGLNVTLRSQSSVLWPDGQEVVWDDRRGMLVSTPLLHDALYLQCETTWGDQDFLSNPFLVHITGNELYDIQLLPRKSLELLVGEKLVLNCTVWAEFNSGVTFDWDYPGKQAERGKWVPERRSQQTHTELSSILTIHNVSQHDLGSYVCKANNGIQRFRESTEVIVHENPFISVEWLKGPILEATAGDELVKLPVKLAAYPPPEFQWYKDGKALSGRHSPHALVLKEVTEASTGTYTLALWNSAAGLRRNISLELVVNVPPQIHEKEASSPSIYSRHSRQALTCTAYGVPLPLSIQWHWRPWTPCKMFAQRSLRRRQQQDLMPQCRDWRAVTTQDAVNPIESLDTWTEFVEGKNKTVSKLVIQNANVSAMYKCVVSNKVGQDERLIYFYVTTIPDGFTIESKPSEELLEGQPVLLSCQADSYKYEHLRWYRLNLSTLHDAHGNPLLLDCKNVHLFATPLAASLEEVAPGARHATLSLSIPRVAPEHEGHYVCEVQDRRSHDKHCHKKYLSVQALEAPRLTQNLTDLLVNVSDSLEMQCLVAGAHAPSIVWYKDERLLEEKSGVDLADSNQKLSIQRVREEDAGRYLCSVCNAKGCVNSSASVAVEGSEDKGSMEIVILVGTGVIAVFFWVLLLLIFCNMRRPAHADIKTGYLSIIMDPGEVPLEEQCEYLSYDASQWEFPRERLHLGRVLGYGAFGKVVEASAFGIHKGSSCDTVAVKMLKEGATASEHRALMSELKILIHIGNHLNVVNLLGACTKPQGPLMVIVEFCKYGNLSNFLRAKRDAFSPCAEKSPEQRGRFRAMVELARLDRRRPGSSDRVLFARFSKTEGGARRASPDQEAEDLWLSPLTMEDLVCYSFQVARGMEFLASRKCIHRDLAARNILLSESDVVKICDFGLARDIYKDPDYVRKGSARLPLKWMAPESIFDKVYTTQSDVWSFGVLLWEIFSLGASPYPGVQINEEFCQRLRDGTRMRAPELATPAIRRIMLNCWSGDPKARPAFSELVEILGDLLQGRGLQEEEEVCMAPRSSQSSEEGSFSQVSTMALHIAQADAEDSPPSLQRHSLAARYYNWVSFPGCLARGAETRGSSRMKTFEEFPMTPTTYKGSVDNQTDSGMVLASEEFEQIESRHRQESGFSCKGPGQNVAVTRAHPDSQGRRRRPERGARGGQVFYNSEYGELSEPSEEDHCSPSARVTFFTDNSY
T13 sequence (P53779 whole entry): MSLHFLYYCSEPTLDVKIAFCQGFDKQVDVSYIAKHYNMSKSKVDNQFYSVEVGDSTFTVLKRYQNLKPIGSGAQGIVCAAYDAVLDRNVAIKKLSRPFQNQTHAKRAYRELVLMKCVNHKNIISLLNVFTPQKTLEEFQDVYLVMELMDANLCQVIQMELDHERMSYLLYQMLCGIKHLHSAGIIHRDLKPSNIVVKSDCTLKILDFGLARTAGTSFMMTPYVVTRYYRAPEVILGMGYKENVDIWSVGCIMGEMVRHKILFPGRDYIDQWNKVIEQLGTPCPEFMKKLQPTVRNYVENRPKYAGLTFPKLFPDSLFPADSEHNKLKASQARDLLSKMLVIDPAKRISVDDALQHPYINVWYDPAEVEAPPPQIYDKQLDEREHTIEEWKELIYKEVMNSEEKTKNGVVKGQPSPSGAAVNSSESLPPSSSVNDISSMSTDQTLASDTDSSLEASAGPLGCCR

SMILES | IC50 (Stk6) [µM] | IC50 (MAP2K1) [µM] | IC50 (Kdr) [µM] | IC50 (Fms) [µM] | IC50 (Kit) [µM] | IC50 (Ret) [µM] | IC50 (FGFR1) [µM] | IC50 (Met) [µM] | IC50 (Flt4) [µM] | IC50 (Flt1) [µM] | IC50 (Btk) [µM] | IC50 (B-Raf V600E) [µM] | IC50 (Jnk3) [µM] | IC50 (c-Raf-1) [µM]
COc1ccc(F)c(C(=O)c2c[nH]c3ncc(-c4cccc(NC(C)=O)c4)cc23)c1 [Compound P-0325] | – | – | – | ≤ 10 | ≤ 10 | ≤ 10 | ≤ 10 | ≤ 10 | ≤ 10 | ≤ 10 | ≤ 10 | ≤ 10 | – | –
Cc1cc(C(=O)c2c[nH]c3ncc(-c4cccc(N)c4)cc23)nn1C [Compound P-0117] | ≤ 10 | – | ≤ 10 | – | ≤ 10 | ≤ 10 | – | ≤ 10 | ≤ 10 | – | – | – | ≤ 10 | –
CS(=O)(=O)Nc1ccc(F)c(C(=O)c2c[nH]c3ncc(Br)cc23)c1 [Compound P-0170, N-[3-(5-Bromo-1H-pyrrolo[2,3-b]pyridine-3-carbonyl)-4-fluoro-phenyl]-methanesulfonamide] | – | ≤ 10 | ≤ 10 | ≤ 10 | – | – | ≤ 10 | – | – | – | – | ≤ 10 | – | ≤ 10

Continued, values first:

IC50 (Stk6) [µM] | IC50 (MAP2K1) [µM] | IC50 (Kdr) [µM] | IC50 (Fms) [µM] | IC50 (Kit) [µM] | IC50 (Ret) [µM] | IC50 (FGFR1) [µM] | IC50 (Met) [µM] | IC50 (Flt4) [µM] | IC50 (Flt1) [µM] | IC50 (Btk) [µM] | IC50 (B-Raf V600E) [µM] | IC50 (Jnk3) [µM] | IC50 (c-Raf-1) [µM] | SMILES
≤ 10 | ≤ 10 | ≤ 10 | – | – | – | – | – | – | – | – | – | – | – | c1cncc(-c2c[nH]c3ncccc23)c1 [Compound P-0023]
– | ≤ 10 | – | – | – | – | – | – | – | – | – | – | – | – | O=C(CCc1c[nH]c2ncccc12)NCc1ccccc1 [Compound P-0331]
– | ≤ 10 | ≤ 10 | – | – | ≤ 10 | ≤ 10 | – | – | – | – | – | – | – | O=C(c1ccccc1F)c1c[nH]c2ncccc12 [Compound P-0158]
